Experimental data: patent US7420051B2, “Synthetic process for the manufacture of an ecteinaschidin compound” (Pharma Mar, S.A., priority 2000, dated 2008)

Key:
Assay type in all cases: cell-based
[1] = test system: HT-29 (monolayer culture of a human colon carcinoma); experiment: Cytotoxic activity screening, HT-29 cells; conditions: Homo sapiens, HT-29, 72 h, three days of incubation, Crystal Violet, approximate IC50
Description: (§1) Cell Cultures. Cells were maintained in logarithmic phase of growth in Eagle's Minimum Essential Medium, with Earle's Balanced Salts, with 2.0 mM L-glutamine, with non-essential amino acids, without sodium bicarbonate (EMEM/neaa); supplemented with 10% Fetal Calf Serum (FCS), 10^−2 M sodium bicarbonate and 0.1 g/l penicillin-G+streptomycin sulfate.
(§2) A simple screening procedure has been carried out to determine and compare the antitumour activity of these compounds, using an adapted form of the method described by Bergeron et al (1984). The tumour cell line employed have been P-388 (suspension culture of a lymphoid neoplasm from DBA/2 mouse), A-549 (monolayer culture of a human lung carcinoma), HT-29 (monolayer culture of a human colon carcinoma) and MEL-28 (monolayer culture of a human melanoma).
(§3) A-549, HT-29 and MEL-28 were seeded into 16 mm wells at 2×10^4 cells per well in 1 ml aliquots of MEM 10FCS containing the indicated concentration of drug. A separate set of cultures without drug was seeded as control growth to ensure that cells remained in exponential phase of growth. All determinations were carried out in duplicate. After three days of incubation at 37° C., 10% CO2 in a 98% humid atmosphere, the wells were stained with 0.1% Crystal Violet. An approximately IC50 was determined by comparing the growth in wells with drug to the growth in wells control.

[2] = test system: P-388 (suspension culture of a lymphoid neoplasm from DBA/2 mouse); experiment: Cytotoxic activity screening, P-388 cells; conditions: Mus musculus, P388, 72 h, three days of incubation, approximate IC50
Description: as §1, §2
P-388 cell were seeded into 16 mm wells at 1×10^4 cells per well in 1 ml aliquots of MEM 5FCS containing the indicated concentration of drug. A separate set of cultures without drug was seeded as control growth to ensure that cells remained in exponential phase of growth. All determinations were carried out in duplicate.

[3] = test system: MEL-28 (monolayer culture of a human melanoma); experiment: Cytotoxic activity screening, MEL-28 cells; conditions: SK-MEL-28, 72 h, three days of incubation, Crystal Violet, approximate IC50
Description: as §1, §2, §3

[4] = test system: A-549 (monolayer culture of a human lung carcinoma); experiment: Cytotoxic activity screening, A-549 cells; conditions: Homo sapiens, A549, 72 h, three days of incubation, Crystal Violet, approximate IC50
Description: as §1, §2, §3

With `COc1c(C)cc2c(c1O)[C@@H]1C3[C@@H]4SCC(=O)C(=O)OC[C@@H](c5c6c(c(C)c(OC(C)=O)c54)OCO6)N3[C@@H](C#N)[C@H](C2)N1C` (stereo partly shown) as the molecule, how does the IC50 [1] read?
The IC50 was 0.01 µM.

What about the IC50 [2] of the same molecule?
The IC50 was 0.01 µM.

And the IC50 [3]?
Its IC50 is 0.01 µM.

And the IC50 [4]?
Its IC50 is 0.01 µM.

How did the IC50 [1] turn out when `COC1=C(C)C(=O)C2=C(C1=O)[C@H](CNC(=O)[C@H](C)NC(=O)OC(C)(C)C)N1C(C2)[C@H]2c3c(cc(C)c(OC)c3O)C[C@@H]([C@@H]1C#N)N2C` (stereo partly shown) was run?
Its IC50 is 0.15 µM.

And the IC50 [2]?
The IC50 was 0.15 µM.

And the IC50 [3]?
The IC50 was over 0.15 µM.

What about the IC50 [4] of the same molecule?
The IC50 was over 0.15 µM.

`C=CCOc1c(C)c2c(c3c1CC1[C@H]4c5c(cc(C)c(OC)c5O)C[C@@H]([C@H](C#N)N1[C@H]3CN)N4C)OCO2` (stereo partly shown) was tested. Which IC50 [1] did it give?
The IC50 was 0.019 µM.

What about the IC50 [2] of the same molecule?
Its IC50 is 0.019 µM.

What about the IC50 [3] of the same molecule?
The IC50 was 0.019 µM.

And the IC50 [4]?
Its IC50 is 0.019 µM.

What does the source list for `COCOc1c(OC)c(C)cc2c1[C@@H]1C3CC4=C(C(=O)C(OC)=C(C)C4=O)[C@H](CNC(=O)[C@H](C)NC(=O)OC(C)(C)C)N3[C@@H](C#N)[C@H](C2)N1C` (stereo partly shown)?
IC50 [1]: 1.44 µM; IC50 [2]: 1.44 µM; IC50 [3]: 1.44 µM; IC50 [4]: 1.44 µM

How did the IC50 [1] turn out when `COCOc1c(OC)c(C)cc2c1[C@@H]1C3Cc4c(O)c(C)c5c(c4[C@H](CNC(=O)[C@H](C)NC(=O)OC(C)(C)C)N3[C@@H](C#N)[C@H](C2)N1C)OCO5` (stereo partly shown) was run?
The IC50 was 1.4 µM.

What about the IC50 [2] of the same molecule?
Its IC50 is 1.4 µM.

What about the IC50 [3] of the same molecule?
Its IC50 is 1.4 µM.

What about the IC50 [4] of the same molecule?
Its IC50 is 1.4 µM.

For `COC1=C(C)C(=O)C2=C(C1=O)C(CNC(C)=O)N1C(C2)[C@H]2c3c(cc(C)c(OC)c3O)C[C@@H]([C@@H]1C#N)N2C` (stereo partly shown), which IC50 [1] is on record?
Its IC50 is 0.005 µM.

What about the IC50 [2] of the same molecule?
The IC50 was 0.005 µM.

And the IC50 [3]?
Its IC50 is 0.005 µM.

And the IC50 [4]?
Its IC50 is 0.005 µM.

Which results are given for `C=CCOc1c(C)c2c(c3c1CC1[C@H]4c5c(cc(C)c(OC)c5OCOC)C[C@@H]([C@H](C#N)N1[C@H]3CNC(=O)[C@H](C)NC(=O)OC(C)(C)C)N4C)OCO2` (stereo partly shown)?
IC50 [1]: 0.01 µM; IC50 [2]: 0.01 µM; IC50 [3]: 0.01 µM; IC50 [4]: 0.01 µM

Which results are given for `COc1c(C)cc2c(c1O)[C@@H]1C3Cc4c(OC(C)=O)c(C)c5c(c4[C@H](CNC(=O)/C=C/c4cccc(C(F)(F)F)c4)N3[C@@H](C#N)[C@H](C2)N1C)OCO5` (stereo partly shown)?
IC50 [2]: 0.0001 µM; IC50 [3]: 0.0001 µM; IC50 [4]: 0.0001 µM

For `C=CCOc1c(C)c2c(c3c1CC1[C@H]4c5c(cc(C)c(OC)c5O)C[C@@H]([C@H](C#N)N1[C@H]3CNC(=O)[C@H](C)NC(=S)Nc1ccccc1)N4C)OCO2` (stereo partly shown), which IC50 [1] is on record?
Its IC50 is 0.01 µM.

And the IC50 [2]?
Its IC50 is 0.01 µM.

What about the IC50 [3] of the same molecule?
The IC50 was 0.01 µM.

And the IC50 [4]?
Its IC50 is 0.01 µM.

What does the source list for `C=CCOc1c(C)c2c(c3c1CC1[C@H]4c5c(cc(C)c(OC)c5O)C[C@@H]([C@H](C#N)N1[C@H]3CNC(=O)[C@H](C)N)N4C)OCO2` (stereo partly shown)?
IC50 [1]: 0.01 µM; IC50 [2]: 0.08 µM; IC50 [3]: 0.16 µM; IC50 [4]: 0.16 µM

What does the source list for `COCCOCOc1c(OC)c(C)cc2c1[C@@H]1C3CC4(O)C(=O)C(C)=C5OCOC5=C4[C@H](CO[Si](C)(C)C(C)(C)C)N3[C@@H](C#N)[C@H](C2)N1C` (stereo partly shown)?
IC50 [1]: > 1 µM; IC50 [4]: > 1 µM

Which IC50 [1] does the source give for `COc1c(C)cc2c(c1O)[C@@H]1C3[C@@H]4SCC(N)C(=O)OC[C@@H](c5c6c(c(C)c(OC(C)=O)c54)OCO6)N3[C@@H](C#N)[C@H](C2)N1C` (stereo partly shown) here?
Its IC50 is 0.008 µM.

And the IC50 [2]?
Its IC50 is 0.008 µM.

What about the IC50 [3] of the same molecule?
Its IC50 is 0.008 µM.

And the IC50 [4]?
Its IC50 is 0.008 µM.

For `COCCOCOc1c(OC)c(C)cc2c1[C@@H]1C3CC4(O)C(=O)C(C)=C5OCOC5=C4[C@H](CO)N3[C@@H](C#N)[C@H](C2)N1C` (stereo partly shown), which IC50 [1] is on record?
Its IC50 is over 1 µM.

What about the IC50 [4] of the same molecule?
The IC50 was over 1 µM.

`C=CCOC(=O)N[C@@H]1CS[C@@H]2c3c(OC(C)=O)c(C)c4c(c3[C@H](COC1=O)N1C2[C@H]2c3c(cc(C)c(OC)c3OCOCCOC)C[C@@H]([C@@H]1C#N)N2C)OCO4` (stereo partly shown) was tested. Which IC50 [1] did it give?
Its IC50 is 0.012 µM.

And the IC50 [4]?
Its IC50 is 0.012 µM.

`C=CCOc1c(C)c2c(c3c1CC1[C@H]4c5c(cc(C)c(OC)c5OCOCCOC)C[C@@H]([C@H](C#N)N1[C@H]3CO[Si](C)(C)C(C)(C)C)N4C)OCO2` (stereo partly shown) was tested. Which IC50 [1] did it give?
The IC50 was over 1 µM.

What about the IC50 [4] of the same molecule?
Its IC50 is over 1 µM.

Which IC50 [1] does the source give for `COCOc1c(OC)c(C)cc2c1[C@@H]1C3CC4=C(C(=O)C(O)=C(C)C4=O)[C@H](CNC(=O)[C@H](C)NC(=O)OC(C)(C)C)N3[C@@H](C#N)[C@H](C2)N1C` (stereo partly shown) here?
Its IC50 is over 1.5 µM.

What about the IC50 [2] of the same molecule?
Its IC50 is over 1.5 µM.

And the IC50 [3]?
Its IC50 is over 1.5 µM.

What about the IC50 [4] of the same molecule?
The IC50 was over 1.5 µM.
